The text below walks through data of patent publication US7202239B2, “Cyclohexylphenyl carboxamides tocolytic oxytocin receptor antagonists” (Wyeth, priority 2001, dated 2007).

The target in series [1] is human vasopressin V1a receptor subtype (Homo sapiens, UniProt P37288). Briefly: Vasopressin binding in CHO cell membranes expressing human vasopressin V1a subtype receptors. The following applies: 100 nM, [3H]Manning ligand. The source says: Vasopressin Binding in Chinese Hamster Ovary Cell Membranes Expressing Human Vasopressin V1a Subtype Receptors
Sequence of human vasopressin V1a receptor subtype (P37288 whole entry): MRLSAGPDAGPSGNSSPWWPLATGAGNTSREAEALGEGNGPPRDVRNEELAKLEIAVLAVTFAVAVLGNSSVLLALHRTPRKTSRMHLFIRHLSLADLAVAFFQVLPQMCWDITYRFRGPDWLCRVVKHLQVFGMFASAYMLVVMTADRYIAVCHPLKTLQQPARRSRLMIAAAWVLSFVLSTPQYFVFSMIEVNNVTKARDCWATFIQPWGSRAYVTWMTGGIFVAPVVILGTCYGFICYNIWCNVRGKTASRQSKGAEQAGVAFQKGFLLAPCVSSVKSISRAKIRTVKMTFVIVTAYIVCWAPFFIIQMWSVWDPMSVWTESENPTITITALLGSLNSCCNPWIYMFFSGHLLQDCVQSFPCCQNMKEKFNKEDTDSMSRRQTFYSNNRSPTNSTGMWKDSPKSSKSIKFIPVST
Chinese hamster ovary cells (CHO cells) stably transfected with the human vasopressin V1a subtype receptors were either obtained from Biosignal Inc., 1744 rue Williams, Montreal, Quebec, Canada or obtained from M. Thibonnier, Case Western Reserve University School of Medicine, Cleveland, Ohio. A. Passaging and Amplification of Cells: CHO cells transfected with the human vasopressin V1a subtype receptors obtained from M. Thibonnier (pZeoSV vector) are allowed to grow to confluency (approx. >90%) in T-150 flasks under sterile conditions, in a cell culture medium of F-12 Nutrient Mixture (HAM) with L-glutamine (Gibco Cat. # 11765-054) containing 15 mM HEPES (Gibco Cat. 15630-080), 1% antibiotic/antimycotic (add 5 mL 100×, Gibco Cat. 15240-062 per 500 mL F-12), 250 μg/mL Zeocin (add 1.25 mL of 100 mg/mL Invitrogen R-250-01 per 500 mL F-12) and 10% Fetal Bovine Serum (Qualified, heat inactivated, Gibco Cat. # 16140-063). The medium is removed by aspiration and the cells are washed with 10 mL of Hank's Balanced Salt solution (Gibco Cat. # 14175-095). The salt solution is removed by aspiration and the cells are trypsinized with 5 mL of trypsin-EDTA (0.05% trypsin, 0.53 mM EDTA-4Na, Gibco Cat. # 25300-070) for 1 min. The trypsin is removed by aspiration and the cells dislodged by tapping. Cell Culture medium (eg, 30 mL for 1:30 split) is immediately added and mixed well to inactivate trypsin. 1 mL of detached cells is added to new culture flasks containing fresh cell culture medium (eg, into 25 mL per T-150 flask), and mixed gently. The cells are incubated at 37° C. in 5% CO2. The medium is changed at 3 to 4 days interval (or as appropriate). The cells grow to confluency (approx. >75%–95%) within 7–8 days. All steps are done under sterile conditions. B. Membrane Preparation: The cells are washed twice gently with Hank's Balanced Salt solution (e.g,. use 10 mL per T-150 flask). The excess is removed and the cells are bathed for 15–30 min. in an enzyme-free Cell Dissociation Buffer (e.g. use 8 mL Hank's Based, Gibco Cat. # 13150-016 per T-150 flask) until the cells are loosened. The contents are transferred to centrifuge tubes (50 mL) kept in an ice bath. All subsequent steps are done at 4° C. The tubes are centrifuged at 300×g for 15 min (1380 rpm on SORVAL, Model RT6000D, using rotor for the 50 mL tubes). The supernatant is discarded and the cells suspended in homogeneizing buffer(10 mM Tris-HCl containing 0.25 M sucrose and 1 mM EDTA, pH 7.4) ensuring that the volume of the buffer is about ten times the volume of the cell pellet. The cells are pooled into a centrifuge tube (50 mL) and homogenized with Polytron at setting 6 for 10 sec. The homogenate is transferred into a Potter-Elvjehm homogenizer and homogenized with 3 strokes. The homogenate is centrifuged at 1500× g for 10 min at 4° C. (3100 rpm using SORVAL, model RT6000D, using the rotor for 50 mL tubes). The pellet is discarded. The supernatant is centrifuged at 100,000×g for 60 min. at 4° C. (Beckman L8-80M ultracentrifuge; spin at 37,500 rpm with rotor type 70 Ti for 50 mL tubes; 38,000 rpm with type 80Ti for 15 mL tubes; or 35,800 rpm with rotor type 45Ti). The supernantant is discarded and the pellet suspended in 3 to 4 mL of Tris buffer (50 mM TRIS-HCl, pH 7.4). The protein content is estimated by the Bradford or Lowry method. The volume of the membrane suspension is adjusted with the membrane buffer (50 mM Tris-HCl containing 0.1% BSA and 0.1 mM PMSF) to give 3.0 mg/mL (or as appropriate) of protein. The membranes are aliquoted and stored at −70° C. C. […]

`COC(=O)c1ccc2c(c1)N(C(=O)c1ccc(C3CCCCC3)cc1)Cc1ccc(C(=O)N3CCN(C)CC3)n1C2.Cl` [Example 1, Methyl 10-(4-cyclohexylbenzoyl)-3-[(4-methyl-1-piperazinyl)carbonyl]-10,11-dihydro-5H-pyrrolo[2,1-c][1,4]benzodiazepine-8-carboxylate hydrochloride salt]: the melting point – broadly, the temperature, or range, at which the solid turns liquid – was 203 °C (dec.). In series [1], the inhibition – broadly, the change of the read-out against control, counted positive when it falls – at 0.1 µM is -7%.

Regarding `CN1CCC(N(C)C(=O)c2ccc3n2Cc2ccccc2N(C(=O)c2ccc(C4CCCCC4)cc2)C3)CC1` [Example 39, 10-(4-Cyclohexyl-benzoyl)-N-methyl-N-(1-methyl-4-piperidinyl)-10,11-dihydro-5H-pyrrolo[2,1-c][1,4]benzodiazepine-3-carboxamide], in series [1], the inhibition at 0.1 µM is 43%.

In the case of `CN1CCC(N(C)C(=O)c2ccc3n2Cc2ccccc2N(C(=O)c2ccc(C4CCCCC4)cc2)C3)C1` (stereo not drawn) [Example 40, 10-(4-Cyclohexyl-benzoyl)-N-methyl-N-(1-methyl-3-pyrrolidinyl)-10,11-dihydro-5H-pyrrolo[2,1-c][1,4]benzodiazepine-3-carboxamide], in series [1], the inhibition at 0.1 µM is 22%.

As for `CN(C)CCN1CCN(C(=O)c2ccc3n2Cc2ccccc2N(C(=O)c2ccc(C4CCCCC4)cc2)C3)CC1` [Example 41, [10-(4-Cyclohexyl-benzoyl)-10,11-dihydro-5H-pyrrolo[2,1-c][1,4]benzodiazepin-3-yl]{4-[2-(dimethylamino)ethyl]-1-piperazinyl}methanone], the inhibition at 0.1 µM in series [1] came out at 14%.

`O=C(c1ccc2n1Cc1ccccc1N(C(=O)c1ccc(C3CCCCC3)cc1)C2)N1CCN(CCN2CCOCC2)CC1` [Example 42, [10(4-Cyclohexyl-benzoyl)-10,11-dihydro-5H-pyrrolo[2,1-c][1,4]benzodiazepin-3-yl]{4-[2-(4-morpholinyl)ethyl]-1-piperazinyl}methanone]: in series [1], the inhibition at 0.1 µM worked out at 28%.

For `C=CCN1CCN(C(=O)c2ccc3n2Cc2ccccc2N(C(=O)c2ccc(C4CCCCC4)cc2)C3)CC1` [Example 43, (4-Allyl-1-piperazinyl)[10-(4-cyclohexyl-benzoyl)-10,11-dihydro-5H-pyrrolo[2,1-c][1,4]benzodiazepin-3-yl]methanone], the inhibition at 0.1 µM in series [1] was determined as 1%.

As for `CC(C)N1CCN(C(=O)c2ccc3n2Cc2ccccc2N(C(=O)c2ccc(C4CCCCC4)cc2)C3)CC1` [Example 44, [10-(4-Cyclohexyl-benzoyl)-10,11-dihydro-5H-pyrrolo[2,1-c][1,4]benzodiazepin-3-yl](4-isopropyl-1-piperazinyl)methanone], the inhibition at 0.1 µM in series [1] stood at 1%.

Turning to `CN(C)CCCN1CCN(C(=O)c2ccc3n2Cc2ccccc2N(C(=O)c2ccc(C4CCCCC4)cc2)C3)CC1` [Example 45, [10-(4-Cyclohexyl-benzoyl)-10,11-dihydro-5H-pyrrolo[2,1-c][1,4]benzodiazepin-3-yl]{4-[3-(dimethylamino)propyl]-1-piperazinyl}methanone], in series [1], the inhibition at 0.1 µM is 31%.

For the molecule `O=C(c1ccc(C2CCCCC2)cc1)N1Cc2ccc(C(=O)N3CCC[C@H]3CN3CCCC3)n2Cc2ccccc21` [Example 46, [10-(4-Cyclohexyl-benzoyl)-10,11-dihydro-5H-pyrrolo[2,1-c][1.4]benzodiazepin-3-yl][(2S)-2-(1-pyrrolidinylmethyl)pyrrolidinyl]methanone], the “V1a % inhibition at 100 nM” value in series [1] is 21%.

With `CN(C)[C@@H]1CCN(C(=O)c2ccc3n2Cc2ccccc2N(C(=O)c2ccc(C4CCCCC4)cc2)C3)C1` [Example 47, [10-(4-Cyclohexyl-benzoyl)-10,11-dihydro-5H-pyrrolo[2,1-C][1,4]benzodiazepin-3-yl][(3R)-3-(dimethylamino)pyrrolidinyl]methanone], the “V1a % inhibition at 100 nM” value in series [1] is reported as 28%.

Regarding `O=C(c1ccc2n1Cc1ccccc1N(C(=O)c1ccc(C3CCCCC3)cc1)C2)N1CCN(CCO)CC1` [Example 48, [10-(4-Cyclohexyl-benzoyl)-10,11-dihydro-5H-pyrrolo[2,1-c][1,4]benzodiazepin-3-y][4-(2-hydroxyethyl)-1-piperazinyl]methanone], the “V1a % inhibition at 100 nM” value in series [1] was 35%.

Take `O=C(NCCc1ccccn1)c1ccc2n1Cc1ccccc1N(C(=O)c1ccc(C3CCCCC3)cc1)C2` [Example 49, 10-(4-Cyclohexyl-benzoyl)-N-[2-(2-pyridinyl)ethyl]-10,11-dihydro-5H-pyrrolo[2,1-c][1,4]benzodiazepine-3-carboxamide]: in series [1], the inhibition at 0.1 µM came out at 0%.

For `O=C(NCc1ccccn1)c1ccc2n1Cc1ccccc1N(C(=O)c1ccc(C3CCCCC3)cc1)C2` [Example 50, 10-(4-Cyclohexyl-benzoyl)-N-(2-pyridinylmethyl)-10,11-dihydro-5H-pyrrolo[2,1-c][1,4]benzodiazepine-3-carboxamide], the inhibition at 0.1 µM in series [1] came out at 3%.

As to `O=C(NCc1cccnc1)c1ccc2n1Cc1ccccc1N(C(=O)c1ccc(C3CCCCC3)cc1)C2` [Example 51, 10-(4-Cyclohexyl-benzoyl)-N-(3-pyridinylmethyl)-10,11-dihydro-5H-pyrrolo [2,1-c][1,4]benzodiazepine-3-carboxamide], the inhibition at 0.1 µM in series [1] was -1%.

In the case of `CN(CCc1ccccn1)C(=O)c1ccc2n1Cc1ccccc1N(C(=O)c1ccc(C3CCCCC3)cc1)C2` [Example 52, 10-(4-Cyclohexyl-benzoyl)-N-methyl-N-[2-(2-pyridinyl)-ethyl]-10,11-dihydro-5H-pyrrolo[2,1-c][1,4]benzodiazepine-3-carboxamide], the inhibition at 0.1 µM in series [1] turned out to be 19%.

For `O=C(NCc1ccncc1)c1ccc2n1Cc1ccccc1N(C(=O)c1ccc(C3CCCCC3)cc1)C2` [Example 53, 10-(4-Cyclohexyl-benzoyl)-N-(4-pyridinylmethyl)-10,11-dihydro-5H-pyrrolo[2,1-c][1,4]benzodiazepine-3-carboxamide], the inhibition at 0.1 µM in series [1] amounted to 20%.

`O=C(c1ccc2n1Cc1ccccc1N(C(=O)c1ccc(C3CCCCC3)cc1)C2)N1CCN(c2ccncc2)CC1` [Example 54, [10-(4-Cyclohexyl-benzoyl)-10,11-dihydro-5H-pyrrolo[2,1-c][1,4]benzpdiazepin-3-yl][4-(4-pyridinyl)-1-piperazinyl]-methanone]: in series [1], the “V1a % inhibition at 100 nM” value is 0%.

On to `CN(CCc1ccncc1)C(=O)c1ccc2n1Cc1ccccc1N(C(=O)c1ccc(C3CCCCC3)cc1)C2` [Example 55, 10-(4-Cyclohexyl-benzoyl)-N-methyl-N-[2(4-pyridinyl)ethyl]-10,11-dihydro-5H-pyrrolo[2,1-c][1,4]benzodiazepine-3-carboxamide], for which, in series [1], the inhibition at 0.1 µM worked out at 50%.

Regarding `O=C(c1ccc(C2CCCCC2)cc1)N1Cc2ccc(C(=O)n3ccnc3)n2Cc2ccccc21` [Example 56, 1H-Imidazol-1-yl-[10-(4-cyclohexyl-benzoyl)-10,11-dihydro-5H-pyrrolo[2,1-c][1,4]benzodiazepin-3-yl]-methanone], the inhibition at 0.1 µM in series [1] is 16%.

Take `CN(Cc1cccnc1)C(=O)c1ccc2n1Cc1ccccc1N(C(=O)c1ccc(C3CCCCC3)cc1)C2` [Example 57, 10-(4-Cyclohexyl-benzoyl)-N-methyl-N-(3-pyridinylmethyl)-10,11-dihydro-5H-pyrrolo[2,1-c][1,4]benzodiazepine-3-carboxamide]: the inhibition at 0.1 µM in series [1] was -5%.
